# Measured values as given in patent publication US4950669A, “Methods and compositions for promoting growth of animals” (priority 1987, dated 1990).
# Where a SMILES comes first, the peptide text is derived from it.
# Assays:
# [1] = 28-day chicken growth study, feed or i.m. injection (Example XII); type: in vivo, chickens; settings: feed 30 g/ton
# Experimental: Portions of N-morpholinyl-β-benzoyl-propionamide were admixed with chicken feed at 1 mg/kg and a 2 mg/kg, respectively. Another portion was formulated into an injectable formulation at a concentration of 2% in polyethylene glycol. The N-morpholinyl-β-benzoylpropionamide was then administered to chickens, either by i.m. injection or in feed, over 28-day period. One group of controls received no medication, while another group of controls received Bacitracin MD in its feed at 30 g/ton. Those chickens receiving intramuscular injections were injected once a week with a dosage of either 1 mg/kg or 2 mg/kg, based on body weight. Birds were weighed on days 0, 14 and 28.
# [2] = 44-day floor-pen study in chickens (Example XV); type: in vivo; settings: feed 30 g/ton, 44 days
# Description: There were 60 chickens per replication, 3 replications per treatment. One group of controls was unmedicated, while a second control group received Bacitracin in the feed at 30 g/ton.
# [3] = 44-day floor pen study in chickens (Example XIV); type: in vivo; settings: feed 30 g/ton
# Experimental: A 44-day floor pen study was conducted in which n-morpholinyl-β-benzoyl-propionamide was administered in chicken feed at concentrations of 1 ppm, 2.5 ppm, 5 ppm, 10 ppm, 20 ppm, 40 ppm and 60 ppm. One group of controls received no medication in its feed, while a second control group received Bacitracin MD in its feed at 30 g/ton. Birds were fed ad libitum. There were 5 replications per treatment, 50 birds per replication. Birds were weighed to determine weight gain and feed-to-gain ration after 35 days and 44 days.
# [4] = 21-day battery study in chickens (Example XIII); type: in vivo; settings: feed 30 g/ton
# Experimental: N-morpholinyl-β-benzoyl-propionamide was admixed with chicken feed at concentrations of 1.0 ppm, 7.5 ppm and 15 ppm. A 21-day battery study was conducted with the NMBP-containing feed. One group of controls was unmedicated, while a second control group received Bacitracin MD in its feed at 30 g/ton. The birds were fed ad libitum and weighed on days 7, 14 and 21. There were 10 birds per replication, 4 replications in controls and 2 replications per drug treatment.
compound,measurement,setting,value
"CC[C@H](C)[C@H](N)C1=N[C@H](C(=O)N[C@@H](CC(C)C)C(=O)N[C@H](CCC(=O)O)C(=O)N[C@H](C(=O)N[C@H]2CCCCNC(=O)[C@H](CC(N)=O)NC(=O)[C@@H](CC(=O)O)NC(=O)[C@H](Cc3cnc[nH]3)NC(=O)[C@@H](Cc3ccccc3)NC(=O)[C@H]([C@@H](C)CC)NC(=O)[C@@H](CCCN)NC2=O)[C@@H](C)CC)CS1 [Bacitracin MD, reference compound] (HELM PEPTIDE1{[CC[C@H](C)[C@H](N)C1=N[C@H](C(=O)[*:2])CS1].L.[dE].I.K.[NCCC[C@@H](N[*:1])C(=O)[*:2]].I.[dF].H.[dD].N}$PEPTIDE1,PEPTIDE1,5:R3-11:R2$$$V2.0)",Average Weight,[1]; Day 0 (baseline),98.6 g
same,Average Weight,[1]; Day 14,475.6 g
same,Feed Conversion,[1]; Day 14,1.37
same,Weight Gain,[1]; Day 14,377.0 g
same,Average Weight,[1]; Day 28,1026.9 g
same,Feed Conversion,[1]; Day 28,1.58
same,Weight Gain,[1]; Day 28,928.3 g
same,Average Live Bird Weight,[2],2.11 kg
same,Feed Conversion,[2],1.75
same,F/G,[3]; Day 35,1.59
same,Weight Gain,[3]; Day 35,1376 g
same,F/G,[3]; Day 44,1.72
same,Weight Gain,[3]; Day 44,1909 g
same,growth results in words,[3]; house cleaned and disinfected just prior to study,lack of positive results
same,F/G,[4]; Day 7,1.37
same,Weight Gain,[4]; Day 7,337 g
same,F/G,[4]; Day 14,1.47
same,Weight Gain,[4]; Day 14,707 g
same,F/G,[4]; Day 21,1.58
same,Weight Gain,[4]; Day 21,1155 g
